# According to PubChem BioAssay AID1552 (Sanford-Burnham Center for Chemical Genomics, 2009):
# Active and inactive are the calls of the source. How the calls were made is not given here.
# Target: Ubiquitin-conjugating enzyme E2 N (Homo sapiens) (UniProt P61088)
# Experiment: UBE2N binders by NMR, biophysical, purified protein (AID 1552)
# Conditions: NMR binding to purified UBE2N
# Chain of Ubiquitin-conjugating enzyme E2 N (Homo sapiens) (P61088 whole entry, looked up): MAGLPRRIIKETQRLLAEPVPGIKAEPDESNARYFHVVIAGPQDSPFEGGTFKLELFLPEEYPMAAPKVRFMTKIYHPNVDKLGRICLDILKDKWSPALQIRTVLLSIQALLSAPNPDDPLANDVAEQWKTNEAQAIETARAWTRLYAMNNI
row,SMILES,Kd
1,Cc1ccc(F)cc1NC(=O)c1ccc2c(c1)OCO2,> 4 mM (inactive)
2,O=C1CC(=O)N(Cc2ccco2)C(=S)N1,> 4 mM (inactive)
3,COC(=O)c1ccc2nccnc2c1,> 4 mM (inactive)
4,O=S1(=O)CCC(NCc2ccccc2)C1 (stereo not drawn),> 4 mM (inactive)
5,O=C(O)C1CSC(c2ccc(Cl)cc2)N1 (stereo not drawn),> 4 mM (inactive)
6,Nc1cccc(C(=O)Nc2ccc(N)cc2Cl)c1,> 4 mM (inactive)
7,COc1cc(OC)c2c(c1Cl)OC1(C2=O)C(O)=CC(=O)CC1C (stereo not drawn),> 4 mM (inactive)
8,O=C(NCc1ccco1)c1ccc(Br)s1,> 4 mM (inactive)
9,COC(=O)C[C@@H]1C2(C)C(=O)[C@@H](CC3=C4CC(=O)O[C@@H](c5ccoc5)[C@]4(C)CCC32)[C@H](OC(C)=O)C1(C)C (stereo partly drawn),> 4 mM (inactive)
10,O=C(Nc1cnccn1)c1cccnc1,> 4 mM (inactive)
11,O=C(Nc1ccccc1)c1cccc(N2C(=O)CCC2=O)c1,> 4 mM (inactive)
12,Nc1cccc(S(N)(=O)=O)c1,> 4 mM (inactive)
13,C/C(N)=C/C(=O)N1CCCCC1,> 4 mM (inactive)
14,O=C1NC(=O)/C(=C\c2ccco2)S1,> 4 mM (inactive)
15,O=C1C2CCCCC2C(=O)N1c1nccs1 (stereo not drawn),> 4 mM (inactive)
16,O=C1C=CC(=O)N1c1ccc(N2CCOCC2)cc1,> 4 mM (inactive)
17,COc1cc(C)c(Cl)cc1S(=O)(=O)N(C)C,> 4 mM (inactive)
18,Cc1[nH]c(=O)[nH]c(=O)c1N1CCOCC1,> 4 mM (inactive)

row,SMILES,Kd
1,O=C(c1ccc(F)cc1)N1CCOCC1,> 4 mM (inactive)
2,CCN1CCC2(CC1)CC1CC3C=CC1(CN2C(C)=O)O3 (stereo not drawn),> 4 mM (inactive)
3,O=C(O)C1NCCc2ccccc21 (stereo not drawn),> 4 mM (inactive)
4,NC(=O)c1ccc(N2C(=O)CCC2=O)cc1Cl,> 4 mM (inactive)
5,CCOc1ccc(C(=O)c2ccncc2)cc1,> 4 mM (inactive)
6,O=C1CSC(=Nc2cc(Cl)ccc2Cl)N1,> 4 mM (inactive)
7,CNC(=O)c1cc(C)c(-c2ccccc2)s1,> 4 mM (inactive)
8,Cc1cc2c(=O)n(C)c(SCC(N)=O)nc2s1,> 4 mM (inactive)
9,CC(=O)O[C@H]1CC[C@@]2(C)C(C[C@@H](OC(C)=O)[C@@]3(C)C4=CC(=O)O[C@@H](c5ccoc5)[C@]4(C)CCC23)C1(C)C (stereo partly drawn),> 4 mM (inactive)
10,Nc1ccc2c(c1)C(=O)OC2,> 4 mM (inactive)
11,COC(=O)c1oc2ccc(Cl)cc2c1NC(C)=O,> 4 mM (inactive)
12,COc1ccc2c(c1)OCC(Cc1ccc(OC)c(OC)c1)C2=O (stereo not drawn),> 4 mM (inactive)
13,NCc1ccc2occc2c1,> 4 mM (inactive)
14,COc1ccc(-c2cc(=O)c3c(O)cc(O)c(-c4cc(-c5cc(=O)c6c(O)cc(O)cc6o5)ccc4OC)c3o2)cc1,> 4 mM (inactive)
15,Cc1nc(-c2ccc(CO)s2)cs1,> 4 mM (inactive)
16,COc1nc(-c2ccccc2)ccc1-c1noc(C)n1,> 4 mM (inactive)
17,O=C(Nc1cccnc1)N1CCOCC1,> 4 mM (inactive)
18,NS(=O)(=O)c1ccc(N=C2NC(=O)CS2)cc1,> 4 mM (inactive)

# Next, values leading:
row,Kd,SMILES
1,> 4 mM (inactive),Cc1nnc(C)n1/N=C/c1cccs1
2,> 4 mM (inactive),CCOC(=O)CC1Sc2ccccc2NC1=O (stereo not drawn)
3,> 4 mM (inactive),COc1ccc(C2=CC(=O)C=CC2=O)cc1
4,> 4 mM (inactive),OC/C=C/c1ccc(O)c(O)c1
5,> 4 mM (inactive),CN1C(=O)/C(=C\c2ccc[nH]2)SC1=S
6,> 4 mM (inactive),O=C(O)Cc1csc(-c2ccccc2)n1
7,> 4 mM (inactive),Cn1ncc(SCc2ccco2)c(Cl)c1=O
8,> 4 mM (inactive),COc1cc(OC)c(-c2nc3cnccc3n2C)cc1OC
9,> 4 mM (inactive),CN1C(=O)c2ccc(N=C3NC(=O)CS3)cc2C1=O
10,> 4 mM (inactive),Cn1c(=O)n(C)c2nc([N+](=O)[O-])c(Cl)cc21
11,> 4 mM (inactive),Cc1cccc(N2C(=O)CCC2=O)n1
12,> 4 mM (inactive),c1ccc(-c2nc3ccccc3nc2-c2ccccn2)nc1
13,> 4 mM (inactive),CN(C)c1ccc(CNn2cnnc2)cc1
14,> 4 mM (inactive),COc1ccc(C)cc1S(=O)(=O)NC1CCCC1
15,> 4 mM (inactive),O=C(O)c1scc2c1CCCC2
16,> 4 mM (inactive),COc1ccc(-c2coc3c(OC)c(OC)cc(O)c3c2=O)cc1
17,> 4 mM (inactive),CCOC(=O)c1c(C)n([O-])c2ccccc2[n+]1=O
18,> 4 mM (inactive),NC(=O)c1ccc(N2CCCCC2)c(N)c1
19,> 4 mM (inactive),S=c1nc2c(n[nH]1)[nH]c1ccccc12
20,> 4 mM (inactive),COC(=O)C[C@@H]1C2(C)C(=O)[C@@H](CC3C2CC[C@]2(C)C3CC(=O)O[C@H]2c2ccoc2)[C@H](OC(C)=O)C1(C)C (stereo partly drawn)
21,> 4 mM (inactive),Nc1ccn(C2O[C@H](CO)[C@@H](O)[C@H]2O)c(=O)n1 (stereo partly drawn)
22,> 4 mM (inactive),O=C(O)Cc1c[nH]c2ccccc12
